Several values for one entry are separate records, joined by “and”; a condition that tells them apart may be missing. Identical values can stand only once. Inconclusive results and toxic doses are left out. No stated cut-off is given here; in the data, active means T/C of 150% or more; inactive means T/C below 125%.
Test system: L1210 leukemia ip in BDF1 mice, survival T/C
Experiment: NCI In Vivo Anticancer Drug Screen. Data for tumor model L1210 Leukemia (intraperitoneal) in B6D2F1 (BDF1) mice
Settings: endpoint: mean survival time, higher = longer survival
Outline: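 In this screen, tumor-bearing mice given compound are compared to those given vehicle, and their survival values are reported as a treated-to-control quotient.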

Measured: T/C

NC(CSC(c1ccccc1)(c1ccccc1)c1ccccc1)C(=O)O (stereo not given)
active: dose: 12.5 mg/kg/injection, schedule: Q01DX015 (ip), vehicle: saline 151 % of control | dose: 15.62 mg/kg/injection, schedule: Q03HX012 (ip), vehicle: water 152 % of control | dose: 16.87 mg/kg/injection, schedule: Q03HX024 (ip), vehicle: other 151 % of control | dose: 27.0 mg/kg/injection, schedule: Q03HX024 (oral), vehicle: clinical formulation 152 % of control | dose: 78.0 mg/kg/injection, schedule: Q02DX005 (ip), vehicle: other 152 % of control | dose: 100.0 mg/kg/injection, schedule: Q01DX Z (ip), vehicle: saline 150 % of control | dose: 2000.0 mg/kg/injection, schedule: Q08DX003 (oral), vehicle: other 151 % of control
inactive: dose: 1.0 mg/kg/injection, schedule: Q01DX Z (ip), vehicle: carboxymethylcellulose (CMC) 97 % of control and 102 % of control | dose: 1.0 mg/kg/injection, schedule: Q01DX Z (ip), vehicle: other 109 % of control | dose: 1.0 mg/kg/injection, schedule: Q01DX Z (ip), vehicle: saline 109 % of control | dose: 1.95 mg/kg/injection, schedule: Q03HX006 (iv), vehicle: clinical formulation 106 % of control | dose: 3.9 mg/kg/injection, schedule: Q03HX006 (iv), vehicle: clinical formulation 101 % of control | dose: 4.0 mg/kg/injection, schedule: Q03HX024 (oral), vehicle: water 107 % of control | dose: 4.1 mg/kg/injection, schedule: Q03HX024 (ip), vehicle: clinical formulation 107 % of control | dose: 4.1 mg/kg/injection, schedule: Q03HX024 (ip), vehicle: saline 114 % of control | dose: 4.1 mg/kg/injection, schedule: Q03HX024 (ip), vehicle: water 111 % of control | dose: 4.4 mg/kg/injection, schedule: Q03HX024 (ip), vehicle: water 106 % of control | dose: 5.0 mg/kg/injection, schedule: Q01DX Z (ip), vehicle: carboxymethylcellulose (CMC) 108 % of control and 123 % of control | dose: 5.0 mg/kg/injection, schedule: Q01DX Z (ip), vehicle: other 115 % of control | dose: 5.0 mg/kg/injection, schedule: Q01DX Z (ip), vehicle: saline 117 % of control | dose: 5.4 mg/kg/injection, schedule: Q03HX024 (ip), vehicle: saline 111 % of control | dose: 6.0 mg/kg/injection, schedule: Q03HX024 (oral), vehicle: water 118 % of control | dose: 6.25 mg/kg/injection, schedule: Q01DX015 (oral), vehicle: saline 108 % of control | dose: 6.25 mg/kg/injection, schedule: Q01DX015 (sc), vehicle: saline 105 % of control | dose: 6.6 mg/kg/injection, schedule: Q03HX024 (ip), vehicle: water 124 % of control | dose: 7.2 mg/kg/injection, schedule: Q03HX024 (ip), vehicle: clinical formulation 124 % of control | dose: 7.81 mg/kg/injection, schedule: Q03HX006 (iv), vehicle: clinical formulation 103 % of control | dose: 7.81 mg/kg/injection, schedule: Q03HX012 (ip), vehicle: clinical formulation 108 % of control | dose: 7.81 mg/kg/injection, schedule: Q03HX012 (ip), vehicle: water 121 % of control | dose: 8.75 mg/kg/injection, schedule: Q03HX008 (ip), vehicle: other 113 % of control | dose: 9.0 mg/kg/injection, schedule: Q03HX024 (oral), vehicle: clinical formulation 105 % of control | dose: 9.0 mg/kg/injection, schedule: Q03HX024 (oral), vehicle: saline 105 % of control | dose: 9.0 mg/kg/injection, schedule: Q03HX024 (oral), vehicle: water 115 % of control | dose: 10.0 mg/kg/injection, schedule: Q01DX Z (ip), vehicle: carboxymethylcellulose (CMC) 119 % of control | dose: 12.5 mg/kg/injection, schedule: Q01DX009 (ip), vehicle: clinical formulation 116 % of control | dose: 12.5 mg/kg/injection, schedule: Q01DX009 (ip), vehicle: other 123 % of control | dose: 12.5 mg/kg/injection, schedule: Q01DX009 (ip), vehicle: water 116 % of control | dose: 12.5 mg/kg/injection, schedule: Q01DX015 (oral), vehicle: saline 114 % of control | dose: 12.75 mg/kg/injection, schedule: Q03HX024 (ip), vehicle: water 119 % of control | dose: 14.0 mg/kg/injection, schedule: Q03HX024 (oral), vehicle: clinical formulation 122 % of control | dose: 15.62 mg/kg/injection, schedule: Q03HX006 (iv), vehicle: clinical formulation 103 % of control | dose: 17.0 mg/kg/injection, schedule: Q01DX009 (ip), vehicle: other 109 % of control | dose: 17.5 mg/kg/injection, schedule: Q01DX005 (ip), vehicle: other 114 % of control | dose: 17.5 mg/kg/injection, schedule: Q01DX009 (ip), vehicle: other 113 % of control | dose: 17.5 mg/kg/injection, schedule: Q## X006 (ip), vehicle: other 116 % of control | dose: 22.5 mg/kg/injection, schedule: Q03HX024 (ip), vehicle: water 92 % of control | dose: 25.0 mg/kg/injection, schedule: Q01DX009 (ip), vehicle: clinical formulation 117 % of control | dose: 25.0 mg/kg/injection, schedule: Q01DX009 (ip), vehicle: other 119 % of control | dose: 25.0 mg/kg/injection, schedule: Q01DX009 (ip), vehicle: water 110 % of control | dose: 31.25 mg/kg/injection, schedule: Q03HX006 (iv), vehicle: clinical formulation 116 % of control | dose: 31.25 mg/kg/injection, schedule: Q03HX012 (ip), vehicle: clinical formulation 118 % of control | dose: 31.25 mg/kg/injection, schedule: Q03HX012 (ip), vehicle: water 118 % of control | dose: 35.0 mg/kg/injection, schedule: Q03HX008 (ip), vehicle: other 122 % of control | dose: 35.0 mg/kg/injection, schedule: Q03HX024 (ip), vehicle: other 107 % of control | dose: 35.0 mg/kg/injection, schedule: Q04DX003 (ip), vehicle: clinical formulation 96 % of control | dose: 35.0 mg/kg/injection, schedule: Q04DX003 (ip), vehicle: other 113 % of control | dose: 35.0 mg/kg/injection, schedule: Q## X006 (ip), vehicle: other 124 % of control | dose: 35.5 mg/kg/injection, schedule: Q01DX009 (ip), vehicle: other 107 % of control | dose: 47.0 mg/kg/injection, schedule: Q04DX003 (ip), vehicle: other 119 % of control | dose: 48.0 mg/kg/injection, schedule: Q03HX024 (oral), vehicle: clinical formulation 106 % of control | dose: 50.0 mg/kg/injection, schedule: Q01DX009 (oral), vehicle: other 123 % of control | dose: 50.0 mg/kg/injection, schedule: Q01DX Z (ip), vehicle: carboxymethylcellulose (CMC) 102 % of control | dose: 52.8 mg/kg/injection, schedule: Q03HX024 (ip), vehicle: clinical formulation 105 % of control | dose: 52.8 mg/kg/injection, schedule: Q04DX003 (ip), vehicle: clinical formulation 95 % of control and 105 % of control | dose: 70.0 mg/kg/injection, schedule: Q01DX001 (ip), vehicle: other 121 % of control | dose: 70.0 mg/kg/injection, schedule: Q03HX008 (ip), vehicle: other 101 % of control | dose: 70.0 mg/kg/injection, schedule: Q04DX003 (ip), vehicle: clinical formulation 107 % of control | dose: 70.0 mg/kg/injection, schedule: Q## X006 (ip), vehicle: other 121 % of control | dose: 78.0 mg/kg/injection, schedule: Q04DX003 (ip), vehicle: other 114 % of control | dose: 78.0 mg/kg/injection, schedule: Q08DX002 (ip), vehicle: other 110 % of control | dose: 80.0 mg/kg/injection, schedule: Q03HX024 (ip), vehicle: clinical formulation 115 % of control | dose: 80.0 mg/kg/injection, schedule: Q04DX003 (ip), vehicle: clinical formulation 94 % of control and 108 % of control | dose: 100.0 mg/kg/injection, schedule: Q01DX009 (ip), vehicle: saline with Tween-80 108 % of control | dose: 100.0 mg/kg/injection, schedule: Q01DX009 (oral), vehicle: other 118 % of control | dose: 100.0 mg/kg/injection, schedule: Q01DX Z (ip), vehicle: other 115 % of control | dose: 100.0 mg/kg/injection, schedule: Q02DX005 (oral), vehicle: other 121 % of control | dose: 112.0 mg/kg/injection, schedule: Q03HX024 (oral), vehicle: clinical formulation 96 % of control | dose: 112.0 mg/kg/injection, schedule: Q03HX024 (oral), vehicle: saline 103 % of control | dose: 112.0 mg/kg/injection, schedule: Q04DX003 (ip), vehicle: clinical formulation 122 % of control | dose: 125.0 mg/kg/injection, schedule: Q02DX009 (ip), vehicle: other 97 % of control | dose: 130.0 mg/kg/injection, schedule: Q08DX002 (ip), vehicle: other 124 % of control | dose: 140.0 mg/kg/injection, schedule: Q01DX001 (ip), vehicle: other 118 % of control | dose: 150.0 mg/kg/injection, schedule: Q01DX Z (ip), vehicle: saline 109 % of control | dose: 160.0 mg/kg/injection, schedule: Q03HX024 (ip), vehicle: saline 110 % of control | dose: 240.0 mg/kg/injection, schedule: Q03HX024 (ip), vehicle: saline 92 % of control | dose: 250.0 mg/kg/injection, schedule: Q02DX009 (ip), vehicle: other 103 % of control | dose: 250.0 mg/kg/injection, schedule: Q02DX009 (oral), vehicle: other 121 % of control | dose: 250.0 mg/kg/injection, schedule: Q04DX005 (oral), vehicle: other 121 % of control | dose: 250.0 mg/kg/injection, schedule: Q08DX003 (oral), vehicle: other 111 % of control | dose: 280.0 mg/kg/injection, schedule: Q01DX001 (ip), vehicle: other 107 % of control | dose: 280.0 mg/kg/injection, schedule: Q04DX003 (ip), vehicle: saline 107 % of control | dose: 400.0 mg/kg/injection, schedule: Q01DX009 (oral), vehicle: other 120 % of control | dose: 500.0 mg/kg/injection, schedule: Q08DX003 (oral), vehicle: other 124 % of control | dose: 800.0 mg/kg/injection, schedule: Q08DX002 (oral), vehicle: other 113 % of control | dose: 1000.0 mg/kg/injection, schedule: Q02DX009 (oral), vehicle: other 112 % of control
